How the values were obtained:
[1] = test system: peripheral blood mono nuclear cells (PBMCs); assay: IL-6 in PBMC culture supernatant by ELISA; assay type: cell-based; details: 24 hours
Procedure: To evaluate the efficacy of TLR-7 agonists, Compound 1 (TLR7-TA), Compound 2 (TLR7-1B) and Compound 3 (TLR7-1C) were treated with peripheral blood mono nuclear cells (PBMCs) for 24 hours. TLR7-1 was used as control. Cell culture supernatant was isolated and tested for IL-6 using enzyme-linked immunosorbent assay (ELISA) (FIG. 22).

[2] = test system: human primary monocyte-derived M2-macrophages; assay: IL-6 and CXCL-10 induction in monocyte-derived M2-macrophages; assay type: cell-based; details: 48 hours

Nc1nc2ncc(CNc3ccc(C(=O)NC(CCC(=O)N[C@@H](CSSCCOC(=O)OCC4CCCN(CCNc5ccc(Cn6c(=O)[nH]c7c(N)nc(C(F)(F)F)cc76)cn5)C4)C(=O)O)C(=O)O)cc3)nc2c(=O)[nH]1 (stereo partly shown) [Compound 3]
IL-6 in culture supernatant [1]: increased expression of IL-6
CXCL-10 induction compared to parent compound TLR7-1 [2]: more efficiently
IL-6 induction compared to parent compound TLR7-1 [2]: more efficiently
macrophage polarization (M1 markers IL-6, CXCL10) [2]: polarize the M2 macrophages to M1 macrophages

— patent US20260284016A1, “COMBINATIONS AND METHODS FOR ENHANCING CHECKPOINT INHIBITOR THERAPIES IN CANCER TREATMENT” (PURDUE RESEARCH FOUNDATION, priority 2004, published 2026)
